Assay results published in US9238020B2, “Compositions comprising enzyme-cleavable phenol-modified tapentadol prodrug” (priority 2010, dated 2016).
Entries after “also recorded” stand apart in the source; their conditions may differ. Where a name gives a salt, the structure may show the parent alone. Read-outs that look alike come from different tables or passages of the source.

What was measured:
[1] = Oral administration of tapentadol prodrugs with or without co-dose of trypsin inhibitor Compound 109 to rats; assay type: in vivo, rat; conditions: by suppressing Cmax and AUC and/or delaying Tmax
Experimental: Saline solutions of Compound TP-1 (which can be prepared as described in the examples herein) were dosed at 39 μmol/kg (25 mg/kg) with or without a co-dose of 55 μmol/kg (30 mg/kg) Compound 109 (Catalog No. 3081, Tocris Bioscience, Ellisville, Mo., USA or Catalog No. WS38665, Waterstone Technology, Carmel, Ind., USA) as indicated in Table 3 via oral gavage into jugular vein-cannulated male Sprague Dawley rats (4 per groups) that had been fasted for 16-18 hr prior to oral dosing. At specified time points, blood samples were drawn, harvested for plasma via centrifugation at 5,400 rpm at 4° C. for 5 min, and 100 μl plasma transferred from each sample into a fresh tube containing 2 μl of 50% formic acid. The tubes were vortexed for 5-10 seconds, immediately placed in dry ice and then stored in a −80° C. freezer until analysis by HPLC/MS.
Table 3 and FIG. 5 provide tapentadol exposure results for rats administered with Compound TP-1 in the absence or presence of trypsin inhibitor.
Saline solutions of Compound TP-3 or Compound TP-4 (which can be prepared as described in the examples herein) were dosed as indicated in Table 9 and according to the procedures as described in Example 13. Sampling and analysis procedures were as described in Example 13. […]

trypsin = biological target: T1, trypsin (Bos taurus, UniProt P00760); assay: In vitro trypsin conversion of prodrug to tapentadol and inhibition thereof by Compound 109; assay type: biochemical, bovine; conditions: bovine, trypsin from bovine pancreas, Table 8, 4815 BAEE U trypsin/mL, read-out: Pro-drug trypsin half-life, Average ± sd (converted)
T1 construct: purchased Sigma-Aldrich T8003; host or cells: bovine pancreas
T1 sequence (P00760 24-246): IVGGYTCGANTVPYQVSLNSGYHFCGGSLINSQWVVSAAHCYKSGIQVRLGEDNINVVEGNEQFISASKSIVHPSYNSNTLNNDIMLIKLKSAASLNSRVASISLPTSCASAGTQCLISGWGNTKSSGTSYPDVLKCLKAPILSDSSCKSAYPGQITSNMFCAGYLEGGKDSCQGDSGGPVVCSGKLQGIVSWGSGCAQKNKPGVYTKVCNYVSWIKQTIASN
Experimental: (§1) Compound TP-1 was incubated with trypsin from bovine pancreas (Catalog No. T8003, Type I, ˜10,000 BAEE units/mg protein, Sigma-Aldrich). Specifically, the reactions included 0.761 nM of Compound TP-1•2HCl, 22.5 mM calcium chloride, 40 to 172 mM Tris pH 8 and 0.25% DMSO with the BAEE units of trypsin indicated in Table 4. The reactions were conducted at 37° C. for 24 hr. Samples were collected at specified time points, transferred into 0.5% formic acid in acetonitrile to stop trypsin activity and stored at less than −70° C. until analysis by LC-MS/MS.
(§2) Compound TP-1 was also incubated in the presence of 2 micromolar (μM) trypsin inhibitor Compound 109. In that case, Compound TP-1 was added 5 min after the other incubation components. Other reaction and sample treatment conditions were as described above.
(§3) Table 4 indicates the results of exposure of Compound TP-1 to trypsin in the absence or presence of trypsin inhibitor. The results are expressed as half-life of prodrug when exposed to trypsin (i.e., Prodrug trypsin half-life) in hours and rate of tapentadol (TP) formation in umol/h/BAEE U trypsin.
(§4) Compound TP-1, Compound TP-3, or Compound TP-4 (which can be prepared as described in the examples herein) were incubated in the absence or presence of Compound 109 as shown in Table 8. Incubations and analysis procedures were as described in Example 14.

[2] = biological target: T2, trypsin from bovine pancreas (Bos taurus, UniProt P00760); assay: as above; assay type: biochemical; conditions: Table 8, 4815 BAEE U trypsin/mL
T2 construct: purchased Sigma-Aldrich T8003; host or cells: bovine pancreas
T2 sequence (P00760 24-246): T1 sequence (P00760 24-246)
Experimental: as §1, §2, §3, §4

[3] = Pharmacokinetics of tapentadol release following PO administration of prodrugs or tapentadol to rats; assay type: in vivo, rat; conditions: approximately equimole amounts
Experimental: Saline solutions of Compound TP-1 (which can be prepared as described in the examples herein) were dosed as indicated in Table 1 via oral gavage into 4 jugular vein-cannulated male Sprague Dawley rats that had been fasted for 16-18 hr prior to oral dosing. At specified time points, blood samples were drawn, harvested for plasma via centrifugation at 5,400 rpm at 4° C. for 5 min, and 100 microliters (μl) plasma transferred from each sample into a fresh tube containing 2 μl of 50% formic acid. The tubes were vortexed for 5-10 seconds, immediately placed in dry ice and then stored in a −80° C. freezer until analysis by HPLC/MS.
Saline solutions of Compounds TP-1, TP-3, TP-4, (which can be prepared as described in the examples herein) or tapentadol were dosed in approximately equimole amounts as indicated in Table 6. Dose administration, sampling and analysis procedures were as described in Example 11.
Dosing, sampling and analysis procedures were as described in Example 11.

[4] = Pharmacokinetics of prodrug and tapentadol following IV administration to rats; conditions: male, Sprague Dawley, in vivo; Table 7; prodrug in rat plasma; IV 2 mg/kg; read-out: Prodrug Cmax ± sd
Experimental: Compound TP-1 (which can be prepared as described in the examples herein) was dissolved in saline and injected into the tail vein of 4 jugular vein-cannulated male Sprague Dawley rats at a dose of 2 mg/kg. At specified time points, blood samples were drawn, harvested for plasma via centrifugation at 5,400 rpm at 4° C. for 5 min, and 100 μl plasma transferred from each sample into a fresh tube containing 2 μl of 50% formic acid. The tubes were vortexed for 5-10 seconds, immediately placed in dry ice and then stored in a −80° C. freezer until analysis by high performance liquid chromatography/mass spectrometry (HPLC/MS).
Table 2 and FIG. 4 provide Compound TP-1 and tapentadol exposure results for rats administered Compound TP-1 intravenously. Results in Table 2 are reported as maximum plasma concentration (Cmax) of Compound TP-1 and tapentadol (TP), respectively, (average±standard deviation).
Compound TP-3 or Compound TP-4 (which can be prepared as described in the examples herein), or tapentadol were dissolved in saline and injected into the tail vein of four jugular vein-cannulated male Sprague Dawley rats at a dose of 2 mg/kg. Sampling and analysis procedures were as described in Example 12.

[5] = Plasma and cerebrospinal fluid penetration following IV administration to rats; assay type: in vivo, rat; conditions: rats, IV, 2 minutes after dosing
Experimental: Compound TP-1 (which can be prepared as described in the examples herein) at a dose of 10 mg/kg, or tapentadol, at a dose of 4 mg/kg, were dissolved in saline and injected into the tail vein of 4 male Sprague Dawley rats. These doses represent approximately equimole amounts. After 2 minutes, the rats were anesthetized by carbon dioxide asphyxiation, blood samples were drawn and harvested for plasma by centrifugation at 5,400 rpm at 4° C. for 5 min, and 100 μl plasma was transferred from each sample into a fresh tube containing 2 μl of 50% formic acid. The CSF fluid was collected using a 22×1 inch gauge needle connected to polyurethane catheter type MRE-040 tubing (Braintree Scientific, Inc., Braintree, Mass.). The needle was inserted just below the nuchal crest at the area of the foramen magnum, and clear CSF fluid was collected into the catheter and transferred into a collection tube. The CSF samples were centrifuged at 5,400 rpm at 4° C. for 5 min, and 100 μl CSF fluid was transferred from each sample into a fresh tube. The plasma and CSF samples were immediately placed in dry ice and then stored in a −80° C. freezer until analysis by high performance liquid chromatography/mass spectrometry (HPLC/MS). In order to study Compound TP-1 and tapentadol plasma and CSF penetration over time, additional groups of 4 rats were administered compounds as described above and anesthetized at specified time points. Plasma and CSF were collected and analyzed as described above.
Results in Table 14 are reported, for each group of four rats, as mean concentrations of the indicated compounds in plasma or CSF. Table 14 also provides the plasma-to-CSF (plasma/CSF) partitioning coefficient, i.e., the ratio of concentration in the plasma to concentration in the CSF of the indicated compounds.

human μ-opioid receptor = human μ-opioid receptor (Homo sapiens, UniProt P35372); assay: In vitro human μ-opioid receptor agonist cellular functional assay (cAMP, CHO cells); assay type: cell-based; parameters: expressed in transfected cells; conditions: CHO cells expressing human μ-opioid receptor, 37° C., 10 min
Experimental: The general procedure follows the protocol described by J.-B. Wang, et al, ibid. More specifically, the assay included as appropriate, Compound TP-1 or tapentadol and recombinant Chinese hamster ovary (CHO) cells expressing the human μ-opioid receptor on their cell surfaces. The control reaction included 1 μM DAMGO. The reaction mixtures were incubated at 37° C. for 10 min, and the reaction product was cyclic AMP (cAMP). The samples were submitted to homogeneous time resolved fluorescence (HTRF®). EC50 values (concentration producing a half-maximal specific response) were determined by non-linear regression fit using Hill plot software.

[6] = tested on: norepinephrine uptake into rat hypothalamus synaptosomes; assay: In vitro functional norepinephrine uptake assay; assay type: biochemical
Experimental: The general procedure follows the protocol described by S. Perovic and W. E. G. Muller, 1995, Arzneim-Forsch. Drug Res. 45, 1145-1148. More specifically, the assays included each of the compounds indicated in Table 13 and rat hypothalamus synaptosomes incubated with 0.2 μCi/mL [^3H] norepinephrine. For a control reaction, protriptyline was used. The reaction mixtures were incubated at 37° C. for 20 min, and the reaction product of [^3H] norepinephrine incorporation into the synaptosomes was measured by scintillation counting. IC50 values (concentration causing a half-maximal inhibition of control specific activity) were determined by non-linear regression fit using Hill plot software.

[7] = pH 8, with Compound 109 (trypsin inhibitor), Compound 109 40 μM
[8] = TP-1 10 mg/kg, tapentadol 4 mg/kg

human μ-opioid receptor, sequence (P35372 whole entry): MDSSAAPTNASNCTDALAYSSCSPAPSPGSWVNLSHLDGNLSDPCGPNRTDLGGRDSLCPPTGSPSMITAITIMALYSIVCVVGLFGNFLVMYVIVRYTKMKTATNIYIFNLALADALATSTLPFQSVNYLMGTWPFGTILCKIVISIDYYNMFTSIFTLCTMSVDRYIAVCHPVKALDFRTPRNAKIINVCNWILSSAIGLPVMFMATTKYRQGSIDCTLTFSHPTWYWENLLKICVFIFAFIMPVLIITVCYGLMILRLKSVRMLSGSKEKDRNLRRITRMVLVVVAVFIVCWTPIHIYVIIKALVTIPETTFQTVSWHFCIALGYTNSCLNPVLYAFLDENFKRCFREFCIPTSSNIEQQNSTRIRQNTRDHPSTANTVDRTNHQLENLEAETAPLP

| Structure (SMILES) | effect of co-dosed Compound 109 on release of tapentadol from prodrug [1] | half-life at 0.761 nM (trypsin; [7]) [h] | half-life at 0.761 nM (trypsin; pH 8, Compound 109 0 μM) [h] | Rate of TP formation, Average ± sd ([2]; Compound 109 0 μM) [umol/h/BAEE U] | Rate of TP formation, Average ± sd ([2]; Compound 109 40 μM) [umol/h/BAEE U] | tapentadol plasma concentration profile compared to administration of tapentadol [3] | Cmax [4] [ng/mL] | Compound conc. in CSF [5, 8] [ng/mL] | Compound conc. in Plasma [5, 8] [ng/mL] | Plasma/CSF partitioning coefficient ([5]; ratio of concentration in plasma to concentration in CSF) | agonist response in the μ-opioid receptor functional assay (human μ-opioid receptor) | IC50 ([6]; [3H] norepinephrine incorporation into rat hypothalamus synaptosomes, 37° C., 20 min) [nM] | activity as a norepinephrine reuptake inhibitor ([6]; rat hypothalamus synaptosomes) |
| --- | --- | --- | --- | --- | --- | --- | --- | --- | --- | --- | --- | --- | --- |
| N=C(N)c1ccc2cc(OC(=O)c3ccc(N=C(N)N)cc3)ccc2c1 [Compound 109, 6-carbamimidoylnaphthalen-2-yl 4-(diaminomethyleneamino)benzoate] | attenuates Compound TP-1's ability to release tapentadol; also recorded: attenuates the abilities of both Compound TP-3 and Compound TP-4 to release tapentadol; also recorded: can attenuate the abilities of both Compound TP-1 and Compound TP-3 to release tapentadol | – | – | – | – | – | – | – | – | – | – | – | – |
| CC[C@@H](c1cccc(OC(=O)N(C)CCNC(=O)[C@H](CCCCN)NC(=O)CC(=O)O)c1)[C@@H](C)CN(C)C [Compound TP-3, N—[(S)-5-Amino-1-(2-{[3-((1R,2R)-3-dimethylamino-1-ethyl-2-methyl-propyl)-phenoxycarbonyl]-methyl-amino}-ethylcarbamoyl)-pentyl]-malonamic acid] | – | 12.2 ± 0.33 | 0.271 ± 0.0023 | 0.0258 ± 0.0024 | 0.0048 ± 0.0000 | suppressed Cmax and delayed Tmax | 1460 ± 99 | – | – | – | – | – | – |
| CC[C@@H](c1cccc(OC(=O)N(C)CC(C)(C)CNC(=O)[C@H](CCCNC(=N)N)NC(=O)CC(=O)O)c1)[C@@H](C)CN(C)C [Compound TP-4, N—[(S)-1-(3-{[3-((1R,2R)-3-Dimethylamino-1-ethyl-2-methyl-propyl)-phenoxycarbonyl]-methyl-amino}-2,2-dimethyl-propylcarbamoyl)-4-guanidino-butyl]-malonamic acid] | – | 1.76 ± 0.22 | 0.0823 ± 0.0028 | 0.0753 ± 0.0007 | 0.028 ± 0.0004 | suppressed Cmax and delayed Tmax | 988 ± 89 | – | – | – | – | – | – |
| CC[C@@H](c1cccc(O)c1)[C@@H](C)CN(C)C [Tapentadol, 3-[(1R,2R)-3-(dimethylamino)-1-ethyl-2-methylpropyl]phenol hydrochloride] | – | – | – | – | – | – | – | 179 | 1870 | 10.4 | no response up to a concentration of 10 μM | 390 | has activity as a norepinephrine reuptake inhibitor |
